PMC12486805, “Preclinical evaluation of tridecaptin M: in vitro and in vivo efficacy against colistin-resistant Gram-negative bacterial pathogens and pharmacokinetics” (Antimicrobial Agents and Chemotherapy, 2025)
In brackets after ≈: the same amount, converted by molar mass. Like-named read-outs stand apart in the source and are kept apart here. Where a SMILES comes first, the peptide text is derived from it. [ ]: non-standard residue; d: D form. The star is where a group is joined. d(aIle) = CC[C@H](C)[C@@H](N)C(=O)O; X1 = CC[C@H](C)CCCCC(=O)*; dDab = NCC[C@@H](N)C(=O)O; Dab = NCC[C@H](N)C(=O)O

What was measured:
[1] = mouse liver microsomes
Procedure: (§3) For without cofactors, 20 µL of PBS was added instead of pre-incubated cofactors. […] At each specified time, a 100 µL sample was taken, processed through a sample extraction procedure, and submitted for LC-MS/MS analysis ([35]). Half-life (t1/2) of test/control items was determined using the following equation
(§4) where, elimination rate constant (k) = −(slope of linear regression curve).

hERG channel = molecular target: T1, hERG channel (Homo sapiens, UniProt Q12809); test: hERG channel inhibition, patch clamp on HEK293 cells expressing hERG; assay type: cell-based
T1 construct: expressed in transfected cells; host or cells: HEK293
Procedure: The experiment starts upon reaching a resistance of 2-3.5 MOhm. A 5 µL cell suspension is added after generating a suction pulse to capture a cell, increasing resistance to 5 MOhm, and triggering the sealing step. […] A hERG protocol measures ion current every 10 s with voltage steps: holding at −80 mV, depolarizing to +40 mV, and repolarizing to −40 mV. Stable current is achieved in ~2 min. […]

[2] = 12 mg/kg every 2 h up to 12 h, total 72 mg/kg; cited from earlier work
[3] = rat liver microsomes
Procedure: as §3, §4

[4] = test system: K. pneumoniae ATCC 700603; settings: ATCC 700603, 48 h
Procedure: LB, TSB, TSB + 1% Glucose, M63, and the M63 media were selected for biofilm experiments ([20], [30], [31]). With some modifications from previous methods, employing CV staining, K. pneumoniae cells were grown in M63 salt media at 37°C, 200 rpm shaking conditions overnight. […] Following incubation, the media and planktonic cells were gently removed, and the wells with adhered biofilm were washed three times with 0.9% saline. […] The biofilm inhibition was calculated as the percentage of biofilm remaining after treatment using the formula:
Biofilms remaining (%)=OD595 (sample)/OD595 (control)×100%

in vitro [5] = settings: rat, microsomes
Procedure: as §3, §4

in vitro [6] = settings: mouse, microsomes
Procedure: as §3, §4

in vitro [7] = settings: human, plasma
Procedure: (§5) Plasma protein binding was assessed using the rapid equilibrium dialysis (RED) method, utilizing RED insert devices with a dialysis membrane featuring an 8,000 Dalton molecular weight cutoff for proteins. The test/control items in human, rat, and mouse plasma were prepared at a test concentration of 10 µM using 10 mM DMSO stocks, and the samples were added to the plasma chamber of the RED insert. The device was sealed with tape and incubated in a thermomixer at 37°C with shaking at 300 rpm for 4 h. Following incubation, a 50 µL aliquot of plasma and buffer was collected from each insert and diluted with an equal volume of the opposite matrix to mitigate matrix effects. The samples were quantified using LC-MS/MS analysis and were tested in duplicates.

in vitro [8] = settings: mouse, plasma, % Binding to Plasma Protein
Procedure: as §5

CYP2C19 = CYP2C19 (Homo sapiens, UniProt P33261); test: CYP inhibition assay, recombinant isoform, fluorescence; assay type: biochemical
Procedure: (§1) The CYP inhibition assay was performed for test/control inhibitor items in duplicates using a 96-well fluorescence plate. An example of the preparation of CYP inhibition is given below in Table 8.
(§2) The plate with CYP master premix with test/control was incubated to allow the test/control samples to interact with CYP enzyme for 10 ± 1 min at 25°C under shaking conditions (400 rpm) using Thermomixer. The assay was initiated by adding 10 µL of a substrate and NADP^+ mixture to all wells, including a vehicle control and an assay blank. […] After incubation, the reaction was quenched by adding 50 µL of stop reagent (0.5 M Tris base) to each well.

CYP2D6 = CYP2D6 (Homo sapiens, UniProt P10635); test: as above; assay type: biochemical
Procedure: as §1, §2

CYP3A4 = CYP3A4 (Homo sapiens, UniProt P08684); test: as above; assay type: biochemical
Procedure: as §1, §2

E. coli = assay type: cell-based, Escherichia coli
Procedure: The MIC for all isolates was determined using the broth microdilution method. This involved preparing CA-MHB medium and serially diluting antibiotic solutions by a factor of two. The test organism was adjusted to a concentration of ≈5 × 10^5 CFU/mL. In a sterile 96-well microtiter plate, 100 µL of CA-MHB, along with 100 µL of each antibiotic, was added, and serial dilutions were made. A 100 µL suspension of the organism was added to each well and mixed, resulting in a total reaction volume of 200 µL per well. The plate was then incubated at 37°C for 16–18 h. The MIC was identified as the lowest concentration of antibiotic that prevented any visible growth of the organism ([16]).

[9] = concentrations well above its MIC; cited from earlier work

Chain of CYP2C19 (P33261 whole entry, canonical isoform): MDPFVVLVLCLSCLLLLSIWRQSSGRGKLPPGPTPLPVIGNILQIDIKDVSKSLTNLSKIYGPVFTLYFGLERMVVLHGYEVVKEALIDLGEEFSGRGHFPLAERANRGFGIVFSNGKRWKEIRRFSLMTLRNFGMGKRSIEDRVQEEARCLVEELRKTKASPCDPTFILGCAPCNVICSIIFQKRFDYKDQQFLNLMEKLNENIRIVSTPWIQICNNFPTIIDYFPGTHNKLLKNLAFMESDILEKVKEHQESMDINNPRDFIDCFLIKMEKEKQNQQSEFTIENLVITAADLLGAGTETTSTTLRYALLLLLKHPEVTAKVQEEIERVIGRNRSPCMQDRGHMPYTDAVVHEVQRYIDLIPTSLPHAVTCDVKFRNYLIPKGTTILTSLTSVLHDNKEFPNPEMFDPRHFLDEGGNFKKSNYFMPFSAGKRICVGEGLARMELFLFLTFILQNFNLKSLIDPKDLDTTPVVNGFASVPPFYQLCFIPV
T1 sequence (Q12809 whole entry): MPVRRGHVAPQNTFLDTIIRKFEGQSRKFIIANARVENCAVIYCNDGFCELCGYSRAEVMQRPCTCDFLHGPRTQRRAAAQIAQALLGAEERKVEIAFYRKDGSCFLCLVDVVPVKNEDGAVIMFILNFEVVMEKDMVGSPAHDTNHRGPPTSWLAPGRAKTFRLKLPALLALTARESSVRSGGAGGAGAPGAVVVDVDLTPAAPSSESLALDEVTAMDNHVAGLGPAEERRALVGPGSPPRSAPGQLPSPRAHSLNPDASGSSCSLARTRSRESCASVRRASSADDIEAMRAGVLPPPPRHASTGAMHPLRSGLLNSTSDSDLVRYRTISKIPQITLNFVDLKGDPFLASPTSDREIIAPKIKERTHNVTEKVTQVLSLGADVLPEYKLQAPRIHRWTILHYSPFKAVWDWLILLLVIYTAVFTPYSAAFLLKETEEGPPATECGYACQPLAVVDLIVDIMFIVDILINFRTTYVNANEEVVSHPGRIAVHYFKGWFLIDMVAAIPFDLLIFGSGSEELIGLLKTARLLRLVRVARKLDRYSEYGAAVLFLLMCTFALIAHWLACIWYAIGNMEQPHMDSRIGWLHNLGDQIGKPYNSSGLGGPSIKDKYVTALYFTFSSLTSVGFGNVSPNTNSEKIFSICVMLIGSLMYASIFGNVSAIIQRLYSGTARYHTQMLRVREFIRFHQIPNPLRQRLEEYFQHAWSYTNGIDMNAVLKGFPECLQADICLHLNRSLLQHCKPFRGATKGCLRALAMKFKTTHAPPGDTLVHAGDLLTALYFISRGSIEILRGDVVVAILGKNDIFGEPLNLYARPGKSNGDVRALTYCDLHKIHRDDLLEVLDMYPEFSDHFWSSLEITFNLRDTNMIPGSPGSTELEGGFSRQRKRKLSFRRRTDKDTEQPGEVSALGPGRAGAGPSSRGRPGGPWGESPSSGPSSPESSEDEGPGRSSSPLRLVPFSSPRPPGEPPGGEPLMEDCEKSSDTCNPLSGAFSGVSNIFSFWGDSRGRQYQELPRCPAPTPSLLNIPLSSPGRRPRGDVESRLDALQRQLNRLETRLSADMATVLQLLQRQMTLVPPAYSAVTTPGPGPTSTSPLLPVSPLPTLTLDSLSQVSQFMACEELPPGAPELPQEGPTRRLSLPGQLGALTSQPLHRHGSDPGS
Chain of CYP2D6 (P10635 whole entry): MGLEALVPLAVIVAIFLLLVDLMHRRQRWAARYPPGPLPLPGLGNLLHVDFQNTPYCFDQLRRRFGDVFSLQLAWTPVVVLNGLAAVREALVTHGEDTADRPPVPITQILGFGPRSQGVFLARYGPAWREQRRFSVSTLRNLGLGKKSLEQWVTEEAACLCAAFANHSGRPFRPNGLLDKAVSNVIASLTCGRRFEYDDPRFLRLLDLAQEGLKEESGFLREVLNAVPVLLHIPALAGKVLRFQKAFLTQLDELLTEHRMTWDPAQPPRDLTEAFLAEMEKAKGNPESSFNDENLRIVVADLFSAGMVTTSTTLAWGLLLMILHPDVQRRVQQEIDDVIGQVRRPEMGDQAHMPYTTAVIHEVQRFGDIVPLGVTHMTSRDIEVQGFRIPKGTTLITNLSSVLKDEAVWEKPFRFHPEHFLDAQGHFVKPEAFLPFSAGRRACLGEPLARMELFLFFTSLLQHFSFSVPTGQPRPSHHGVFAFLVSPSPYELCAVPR
Chain of CYP3A4 (P08684 whole entry): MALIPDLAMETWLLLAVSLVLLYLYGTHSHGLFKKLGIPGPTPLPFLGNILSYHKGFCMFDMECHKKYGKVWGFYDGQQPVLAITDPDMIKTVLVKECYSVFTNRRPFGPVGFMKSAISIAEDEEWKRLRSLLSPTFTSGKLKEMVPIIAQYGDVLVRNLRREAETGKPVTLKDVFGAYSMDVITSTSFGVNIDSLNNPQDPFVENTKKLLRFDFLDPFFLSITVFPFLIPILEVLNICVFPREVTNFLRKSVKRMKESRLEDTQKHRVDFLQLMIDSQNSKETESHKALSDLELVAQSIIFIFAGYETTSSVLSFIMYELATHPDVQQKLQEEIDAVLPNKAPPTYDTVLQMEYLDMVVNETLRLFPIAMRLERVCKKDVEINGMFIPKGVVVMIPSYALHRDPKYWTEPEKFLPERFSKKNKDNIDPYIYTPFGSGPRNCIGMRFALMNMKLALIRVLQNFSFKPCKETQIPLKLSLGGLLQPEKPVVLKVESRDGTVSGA

CC[C@H](C)CCCCC(=O)NCC(=O)N[C@H](CCN)C(=O)NCC(=O)N[C@H](CO)C(=O)N[C@H](Cc1c[nH]c2ccccc12)C(=O)N[C@@H](CO)C(=O)N[C@@H](CCN)C(=O)N[C@H](CCN)C(=O)N[C@H](C(=O)N[C@@H](CCC(=O)O)C(=O)N[C@H](C(=O)N[C@@H](C(=O)N[C@@H](CO)C(=O)O)[C@@H](C)CC)[C@@H](C)CC)[C@@H](C)CC [Tridecaptin M, tridecaptin M] (X1-G[dDab]G[dS][dW]S[Dab][dDab]IEI[d(aIle)]S-OH)
CL [1]: <11.55 µL/min/mg
Mean current (hERG channel; 0.1 µM): 4.41E-10 A
Mean current (hERG channel; 0.3 µM): 4.66E-10 A
Mean current (hERG channel; 1 µM): 4.64E-10 A
Mean current (hERG channel; 3 µM): 4.58E-10 A
Mean current (hERG channel; 10 µM): 4.34E-10 A
Mean current (hERG channel; 30 µM): 4.68E-10 A
inhibition of the hERG channel (hERG channel; concentrations up to 30 µM (44.6 µg/mL)): no significant inhibition
inhibition at 0.1 µM (hERG channel; human, HEK293 cells expressing hERG, pH 7.4, 0.1 µM): -0.37%
inhibition at 0.3 µM (hERG channel; human, HEK293 cells expressing hERG, pH 7.4, 0.3 µM): -5.86%
inhibition at 1 µM (hERG channel; human, HEK293 cells expressing hERG, pH 7.4, 1 µM): -5.54%
inhibition at 3 µM (hERG channel; human, HEK293 cells expressing hERG, pH 7.4, 3 µM): -4.07%
inhibition at 10 µM (hERG channel; human, HEK293 cells expressing hERG, pH 7.4, 10 µM): 1.37%
inhibition at 30 µM (hERG channel; human, HEK293 cells expressing hERG, pH 7.4, 30 µM): -6.44%
tolerance in acute toxicity study [2]: good tolerance
CL [3]: <11.55 µL/min/mg
% Biofilm remaining (biofilm inhibition) [4]; 1: 29.6%
% Biofilm remaining (biofilm inhibition) [4]; 2: 7.0%
% Biofilm remaining (biofilm inhibition) [4]; 5: 0.5%
half-life (in vitro [5]; pH 7.4): > 2 h
remaining at 0.25 h (in vitro [5]; pH 7.4): 86.4%
remaining at 0.5 h (in vitro [5]; pH 7.4): 76.5%
remaining at 1 h (in vitro [5]; pH 7.4): 70.1%
remaining at 2 h (in vitro [5]; pH 7.4): 58.8%
microsomal CLint (in vitro [5]; pH 7.4, CL, rat liver microsomes): < 11 µL/min/mg
half-life (in vitro [6]; pH 7.4): > 2 h
remaining at 0.25 h (in vitro [6]; pH 7.4): 82.4%
remaining at 0.5 h (in vitro [6]; pH 7.4): 83.8%
remaining at 1 h (in vitro [6]; pH 7.4): 88.1%
remaining at 2 h (in vitro [6]; pH 7.4): 74.7%
microsomal CLint (in vitro [6]; pH 7.4, CL, mouse liver microsomes): < 11 µL/min/mg
fraction unbound at 4 h, 10 µM (in vitro [7]): 0.227
fraction unbound at 4 h, 10 µM (in vitro [8]): 0.5
IC50 (CYP2C19): > 30 µM
inhibition at 25 min, 0.01 µM (CYP2C19; human): < 0%
inhibition at 25 min, 0.03 µM (CYP2C19; human): < 0%
inhibition at 25 min, 0.1 µM (CYP2C19; human): < 0%
inhibition at 25 min, 0.3 µM (CYP2C19; human): < 0%
inhibition at 25 min, 1 µM (CYP2C19; human): < 0%
inhibition at 25 min, 3 µM (CYP2C19; human): 0.13%
inhibition at 25 min, 10 µM (CYP2C19; human): 5.67%
inhibition at 25 min, 30 µM (CYP2C19; human): 11.7%
IC50 (CYP2D6): > 30 µM
inhibition at 25 min, 0.01 µM (CYP2D6; human): < 0%
inhibition at 25 min, 0.03 µM (CYP2D6; human): < 0%
inhibition at 25 min, 0.1 µM (CYP2D6; human): < 0%
inhibition at 25 min, 0.3 µM (CYP2D6; human): < 0%
inhibition at 25 min, 1 µM (CYP2D6; human): < 0%
inhibition at 25 min, 3 µM (CYP2D6; human): 1.28%
inhibition at 25 min, 10 µM (CYP2D6; human): 10.9%
inhibition at 25 min, 30 µM (CYP2D6; human): 13.1%
IC50 (CYP3A4): > 30 µM
inhibition at 25 min, 0.01 µM (CYP3A4; human): < 0%
inhibition at 25 min, 0.03 µM (CYP3A4; human): < 0%
inhibition at 25 min, 0.1 µM (CYP3A4; human): < 0%
inhibition at 25 min, 0.3 µM (CYP3A4; human): < 0%
inhibition at 25 min, 1 µM (CYP3A4; human): 3.77%
inhibition at 25 min, 3 µM (CYP3A4; human): 9%
inhibition at 25 min, 10 µM (CYP3A4; human): 28%
inhibition at 25 min, 30 µM (CYP3A4; human): 26.6%
MIC (E. coli): 4 µg/mL (≈ 2.69 µM)
MIC50 (E. coli): 4 µg/mL (≈ 2.69 µM)
MIC range (E. coli): 1 to 8 µg/mL
MIC values (E. coli): 2 to 8 µg/mL
hemolysis [9]: non-hemolytic
